Measured values published in patent US20240123080A1, “CYTOTOXIC COMPOUNDS AND CONJUGATES THEREOF” (Seagen Inc., priority 2022, published 2024).
*1 amine or outer side, *2 acyl side, *3 side chain or, on linkers, in order; H or OH if unused. Where a SMILES comes first, the peptide text is derived from it. [ ]: non-standard residue; d: D form. The star is where a group is joined. ξ: configuration not given here. Dolaproine = CO[C@@H]([C@@H]1CCCN1)[C@@H](C)C(=O)O; Hexanoyl(6-maleimido) = O=C1C=CC(=O)N1CCCCCC(=O)*; Propanoyl(3-maleimido) = O=C1C=CC(=O)N1CCC(=O)*; Dil = CC[C@H](C)[C@H](NC)[C@@H](CC(=O)O)OC; PABC = O=C(OCc1ccc(N[*:1])cc1)[*:2]; Tyrosinol = OC[C@H](Cc1ccc(O)cc1)N*; Val(3-OH) = CC(C)(O)[C@H](N)C(=O)O; Doe = c1ccc(C[C@H](N*)c2nccs2)cc1; X1 = C[C@@H](N*)[C@@H](O)c1ccccc1; NMeT = CN[C@H](C(=O)O)[C@@H](C)O; Cit = NC(=O)NCCC[C@H](N)C(=O)O; Phe(ol) = N[C@H](CO)Cc1ccccc1; NHPhenethyl = c1ccc(CCN*)cc1; X3 = CN1C(=O)OC[C@@H]1C(=O)*; NMeS = CN[C@@H](CO)C(=O)O; dNMeS = CN[C@H](CO)C(=O)O; ξαMeS = CC(N)(CO)C(=O)O

Assays:
[1] = LogD, miniaturized 1-octanol/pH 7.4 buffer shake flask method, LC/MS/MS; assay type: physicochemical
Procedure: The LogD (distribution coefficient) of the compounds was measured using a miniaturized 1-octanol/pH 7.4 buffer shake flask method followed by LC/MS/MS analysis. Values were determined by measuring the compound partitioned in the organic and buffered layers.

[2] = test system: DEL ALCL; experiment: In vitro cytotoxicity, cell proliferation assay (CellTiter-Glo, 96 h); assay type: cell-based; conditions: auristatin free drug
Procedure: (§1) The cytotoxicity of free drugs and drug conjugates were measured by a cell proliferation assay employing the protocol described in Promega Corp. Technical Bulletin TB288; and Mendoza et al., 2002, Cancer Res. 62:5485-5488), the methods of which are specifically incorporated by reference herein. Briefly, an aliquot of 40 μl of cell culture containing about 400 cells in medium is deposited in each well of a 384-well, opaque-walled plate. A 10 μL aliquot of free drug or drug conjugate is added to the experimental wells and incubated for 96 h and are then equilibrated to room temperature for approximately 30 minutes whereupon a volume of CellTiter-Glo™ reagent equal to the volume of cell culture medium present in each well is added. The contents are mixed for 2 minutes on an orbital shaker to induce cell lysis and the plate is incubated at room temperature for 10 minutes to stabilize the luminescence signal for recordation.

[3] = test system: Karpas299 NHL; experiment: as above; assay type: cell-based; conditions: Homo sapiens, KARPAS-299, auristatin free drug
Procedure: as §1

[4] = test system: L540cy HL; experiment: as above; assay type: cell-based; conditions: auristatin free drug
Procedure: as §1

[5] = test system: Sprague Dawley rats; experiment: In vivo rat safety study of non-binding (h00) ADCs, hematology and clinical chemistry; conditions: ADC of the Drug-Linker
Procedure: In vivo rat safety studies were done in naive female Sprague Dawley rats (Envigo). Studies had 3 animals/group/timepoint and included a vehicle control group (1×PBS pH 7.4). Animals were administered a single dose of 15 or 80 mg/kg of an h00 ADC (DAR=4) via intravenous injection. Blood was drawn at days 5 and day 8. Blood was sampled under isoflurane anesthesia via the jugular vein for periodic hematology analysis on the Sysmex XT-2000iV. At necropsy, blood was collected from the caudal vena cava for hematology and clinical chemistry panels. Clinical chemistry was analyzed on a Beckman Coulter AU680.

Structure (SMILES) | logD [1] | IC50 [2] | IC50 [3] | IC50 [4] | Tolerated at 80 mg/kg in rats [5]
CC[C@H](C)[C@@H]([C@@H](CC(=O)N1CCC[C@H]1[C@H](OC)[C@@H](C)C(=O)N[C@H](CO)Cc1ccccc1)OC)N(C)C(=O)[C@@H](NC(=O)[C@H](CO)NC)C(C)C [Example 12] (H-[NMeS]V[Dil][Dolaproine][Phe(ol)]) | 1.2 | 1.1 nM | 0.3 nM | 4.8 nM | 
CC[C@H](C)[C@@H]([C@@H](CC(=O)N1CCC[C@H]1[C@H](OC)[C@@H](C)C(=O)N[C@H](CO)Cc1ccccc1)OC)N(C)C(=O)[C@@H](NC(=O)[C@@H](NC)[C@@H](C)O)C(C)C [Example 13] (H-[NMeT]V[Dil][Dolaproine][Phe(ol)]) | 1.4 | 1.2 nM | 2.2 nM | 5 nM | 
CC[C@H](C)[C@@H]([C@@H](CC(=O)N1CCC[C@H]1[C@H](OC)[C@@H](C)C(=O)N[C@H](CO)Cc1ccccc1)OC)N(C)C(=O)[C@@H](NC(=O)[C@@H](CO)NC)C(C)C [Example 14] (H-[dNMeS]V[Dil][Dolaproine][Phe(ol)]) | 1.1 | 3.5 nM | 7.4 nM | 10 nM | 
CC[C@H](C)[C@@H]([C@@H](CC(=O)N1CCC[C@H]1[C@H](OC)[C@@H](C)C(=O)N[C@H](C)[C@@H](O)c1ccccc1)OC)N(C)C(=O)[C@@H](NC(=O)[C@H](CO)NC)C(C)C [Example 17] (H-[NMeS]V[Dil][Dolaproine]-X1) | 1.1 | 2.5 nM | 7.6 nM | 16.2 nM | 
CC[C@H](C)[C@@H]([C@@H](CC(=O)N1CCC[C@H]1[C@H](OC)[C@@H](C)C(=O)NCCc1ccccc1)OC)N(C)C(=O)[C@@H](NC(=O)[C@H](CO)NC)C(C)C [Example 18] (H-[NMeS]V[Dil][Dolaproine]-NHPhenethyl) | 1.9 | 0.6 nM | 2.3 nM | 16 nM | 
CC[C@H](C)[C@@H]([C@@H](CC(=O)N1CCC[C@H]1[C@H](OC)[C@@H](C)C(=O)N[C@@H](Cc1ccccc1)c1nccs1)OC)N(C)C(=O)[C@@H](NC(=O)[C@H](CO)NC)C(C)C [Example 19] (H-[NMeS]V[Dil][Dolaproine]-Doe) | 2.4 | 0.4 nM | 0.5 nM | 2.5 nM | 
CC[C@H](C)[C@@H]([C@@H](CC(=O)N1CCC[C@H]1[C@H](OC)[C@@H](C)C(=O)N[C@@H](Cc1ccccc1)c1nccs1)OC)N(C)C(=O)[C@@H](NC(=O)[C@H](CO)NC)[C@@H](C)CC [Example 20] (H-[NMeS]I[Dil][Dolaproine]-Doe) | 1.9 | 0.3 nM | 1 nM | 4.7 nM | 
CC[C@H](C)[C@@H]([C@@H](CC(=O)N1CCC[C@H]1[C@H](OC)[C@@H](C)C(=O)N[C@H](C)[C@@H](O)c1ccccc1)OC)N(C)C(=O)[C@@H](NC(=O)[C@@H](N)C(C)(C)O)C(C)C [Example 28] (H-[Val(3-OH)]V[Dil][Dolaproine]-X1) | 2 | 7.8 nM | 9.4 nM | 28 nM | 
CC[C@H](C)[C@@H]([C@@H](CC(=O)N1CCC[C@H]1[C@H](OC)[C@@H](C)C(=O)N[C@H](CO)Cc1ccccc1)OC)N(C)C(=O)[C@@H](NC(=O)[C@@H](N)C(C)(C)O)C(C)C [Example 29] (H-[Val(3-OH)]V[Dil][Dolaproine][Phe(ol)]) | 2 | 12.7 nM | 13.7 nM | 58 nM | 
CC[C@H](C)[C@@H]([C@@H](CC(=O)N1CCC[C@H]1[C@H](OC)[C@@H](C)C(=O)N[C@H](CO)Cc1ccc(O)cc1)OC)N(C)C(=O)[C@@H](NC(=O)[C@@H](N)C(C)(C)O)C(C)C [Example 30] (H-[Val(3-OH)]V[Dil][Dolaproine]-Tyrosinol) | 1.2 | 396 nM | 481 nM | > 1000 nM | 
CC[C@H](C)[C@@H]([C@@H](CC(=O)N1CCC[C@H]1[C@H](OC)[C@@H](C)C(=O)N[C@@H](Cc1ccccc1)c1nccs1)OC)N(C)C(=O)[C@@H](NC(=O)[C@@H](N)C(C)(C)O)C(C)C [Example 31] (H-[Val(3-OH)]V[Dil][Dolaproine]-Doe) | 3.4 | 2.1 nM | 1.7 nM | 4.7 nM | 
CC[C@H](C)[C@@H]([C@@H](CC(=O)N1CCC[C@H]1[C@H](OC)[C@@H](C)C(=O)N[C@H](C)[C@@H](O)c1ccccc1)OC)N(C)C(=O)[C@@H](NC(=O)C[C@@H](N)CO)C(C)C [Example 32] | 0.3 | 64 nM | 56 nM | 920 nM | 
CC[C@H](C)[C@@H]([C@@H](CC(=O)N1CCC[C@H]1[C@H](OC)[C@@H](C)C(=O)N[C@H](C)[C@@H](O)c1ccccc1)OC)N(C)C(=O)[C@@H](NC(=O)C(C)(N)CO)C(C)C (stereo partly drawn) [Example 33] (H-[ξαMeS]V[Dil][Dolaproine]-X1) | 3.2 | 1.8 nM | 1.7 nM | 6.4 nM | 
CC[C@H](C)[C@@H]([C@@H](CC(=O)N1CCC[C@H]1[C@H](OC)[C@@H](C)C(=O)N[C@H](CO)Cc1ccccc1)OC)N(C)C(=O)[C@@H](NC(=O)[C@H]1COC(=O)N1C)C(C)C [Example 45] (X3-V[Dil][Dolaproine][Phe(ol)]) | 1.5 | 8.5 nM | 40.8 nM | 272 nM | 
CC[C@H](C)[C@@H]([C@@H](CC(=O)N1CCC[C@H]1[C@H](OC)[C@@H](C)C(=O)NC(CCO)Cc1ccccc1)OC)N(C)C(=O)[C@@H](NC(=O)[C@H](CO)N(C)C)C(C)C (stereo partly drawn) [Example 54] |  | 7 nM | 6 nM | 274 nM | 
CC[C@H](C)[C@@H]([C@@H](CC(=O)N1CCC[C@H]1[C@H](OC)[C@@H](C)C(=O)NC(Cc1ccccc1)c1cccs1)OC)N(C)C(=O)[C@@H](NC(=O)[C@H](CO)N(C)C)C(C)C (stereo partly drawn) [Example 55] |  | 0.8 nM | 1 nM | 16 nM | 
CC[C@H](C)[C@@H]([C@@H](CC(=O)N1CCC[C@H]1[C@H](OC)[C@@H](C)C(=O)NC(Cc1ccccc1)c1ncco1)OC)N(C)C(=O)[C@@H](NC(=O)[C@H](CO)N(C)C)C(C)C (stereo partly drawn) [Example 56] |  | 1 nM | 0.9 nM | 24 nM | 
CC[C@H](C)[C@@H]([C@@H](CC(=O)N1CCC[C@H]1[C@H](OC)[C@@H](C)C(=O)N[C@@H](Cc1ccccc1)[C@@H](O)CO)OC)N(C)C(=O)[C@@H](NC(=O)[C@H](CO)N(C)C)C(C)C [Example 57] |  | 4 nM | 3 nM | 49 nM | 
CC[C@H](C)[C@@H]([C@@H](CC(=O)N1CCC[C@H]1[C@H](OC)[C@@H](C)C(=O)N[C@H](CO)Cc1ccccc1)OC)N(C)C(=O)[C@@H](NC(=O)[C@H](CO)N(C)C(=O)OCc1ccc(NC(=O)[C@H](CCCNC(N)=O)NC(=O)[C@@H](NC(=O)CCCCCN2C(=O)C=CC2=O)C(C)C)cc1)C(C)C [Example 61] ({Hexanoyl(6-maleimido)}-V[Cit][PABC][NMeS]V[Dil][Dolaproine][Phe(ol)]) |  |  |  |  | Yes
CC[C@H](C)[C@@H]([C@@H](CC(=O)N1CCC[C@H]1[C@H](OC)[C@@H](C)C(=O)NCCc1ccccc1)OC)N(C)C(=O)[C@@H](NC(=O)[C@H](CO)N(C)C(=O)OCc1ccc(NC(=O)[C@H](CCC(=O)O)NC(=O)[C@H](C)NC(=O)[C@@H](CC(C)C)NC(=O)CCN2C(=O)C=CC2=O)cc1)C(C)C [Example 78] ({Propanoyl(3-maleimido)}-[dL]AE[PABC][NMeS]V[Dil][Dolaproine]-NHPhenethyl) |  |  |  |  | Yes
CC[C@H](C)[C@@H]([C@@H](CC(=O)N1CCC[C@H]1[C@H](OC)[C@@H](C)C(=O)N[C@@H](Cc1ccccc1)c1nccs1)OC)N(C)C(=O)[C@@H](NC(=O)[C@H](CO)N(C)C(=O)OCc1ccc(NC(=O)[C@H](CCC(=O)O)NC(=O)[C@H](C)NC(=O)[C@@H](CC(C)C)NC(=O)CCN2C(=O)C=CC2=O)cc1)C(C)C [Example 79] ({Propanoyl(3-maleimido)}-[dL]AE[PABC][NMeS]V[Dil][Dolaproine]-Doe) |  |  |  |  | No
CC[C@H](C)[C@@H]([C@@H](CC(=O)N1CCC[C@H]1[C@H](OC)[C@@H](C)C(=O)N[C@@H](Cc1ccccc1)c1nccs1)OC)N(C)C(=O)[C@@H](NC(=O)[C@H](CO)N(C)C(=O)OCc1ccc(NC(=O)[C@H](CCC(=O)O)NC(=O)[C@H](C)NC(=O)[C@@H](CC(C)C)NC(=O)CCN2C(=O)C=CC2=O)cc1)[C@@H](C)CC [Example 80] ({Propanoyl(3-maleimido)}-[dL]AE[PABC][NMeS]I[Dil][Dolaproine]-Doe) |  |  |  |  | Yes
